Results as given in publication PMC12638379, “An innovative approach to development of new pyrazolylquinolin-2-one hybrids as dual EGFR and BRAF^V600E inhibitors” (Molecular Diversity, 2025).
Where two headings read alike, the source gives them in different places.

Experiments:
EGFR = biological target: T1, EGFR (Homo sapiens, UniProt P00533); experiment: EGFR inhibitory assay; format: biochemical; details: for %inh: EGFR, unit not given
T1 construct: EGFR cytoplasmic domain (EGFR-CD, amino acids 645–1186); His6 (N); made in house; host or cells: Sf-9 insect cells (baculovirus)

[1] = test system: leukemia (MOLT-4) cell line; experiment: MTT antiproliferative assay, MOLT-4; format: cell-based, human
Description: (§1) After 24 h of culture incubation and supernatants discarded.

[2] = test system: breast cancer (T47D) cell line; experiment: MTT antiproliferative assay, T-47D
Method in brief: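 HOP-92, MOLT-4 and T-47D cells in DMEM/10% FBS/insulin exposed 24 h to serial 10-fold dilutions […]; MTT added 2–4 h, absorbance at 570 nm with 690 nm background subtraction. Percent viable cells gives IC50; GI50 is the average IC50 across the three lines.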

BRAF^V600E = BRAF^V600E (Homo sapiens, UniProt P15056, V600E); experiment: BRAF^V600E inhibitory assay (B-Raf (V600E) Kinase Assay); format: biochemical; details: read-out: BRAF^V600E inhibition IC50 ± SEM
[3] = MTT cytotoxicity on normal cell line WI-38; details: human, WI-38 normal cells, % viability
[4] = test system: lung cancer (HOP-92) cell line; experiment: MTT antiproliferative assay, HOP-92; format: cell-based, human
Description: […]. […] See Appendix B.
as §1

NCI 60 cancer cell lines = experiment: NCI anticancer screening over a panel of 60 cancer cells, single concentration 10 µM; format: cell-based, human; details: Homo sapiens, read-out: % Growth Inhibition (GI %)
Method in brief: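 Primary single-dose screen at 10 µM over the NCI panel of 60 human tumour cell lines (leukemia, CNS, lung, colon, kidney, ovary, breast, prostate). The standard NCI Developmental Therapeutics Program protocol was used.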

T1 sequence (P00533 669-1210): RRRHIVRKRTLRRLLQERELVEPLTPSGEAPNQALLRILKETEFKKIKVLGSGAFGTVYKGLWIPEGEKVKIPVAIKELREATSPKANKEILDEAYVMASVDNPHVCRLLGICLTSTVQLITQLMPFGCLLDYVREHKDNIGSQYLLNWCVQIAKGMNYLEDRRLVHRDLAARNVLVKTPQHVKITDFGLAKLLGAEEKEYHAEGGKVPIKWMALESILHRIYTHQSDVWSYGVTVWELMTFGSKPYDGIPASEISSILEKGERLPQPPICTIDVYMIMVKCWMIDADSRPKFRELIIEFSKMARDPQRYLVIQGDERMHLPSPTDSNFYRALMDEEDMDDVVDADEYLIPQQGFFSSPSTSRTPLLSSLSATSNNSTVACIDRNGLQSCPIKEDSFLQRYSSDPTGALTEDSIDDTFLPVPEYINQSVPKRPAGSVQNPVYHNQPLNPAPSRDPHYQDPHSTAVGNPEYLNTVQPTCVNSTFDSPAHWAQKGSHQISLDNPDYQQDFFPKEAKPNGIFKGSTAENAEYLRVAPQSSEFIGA
BRAF^V600E, sequence (P15056 whole entry V600E): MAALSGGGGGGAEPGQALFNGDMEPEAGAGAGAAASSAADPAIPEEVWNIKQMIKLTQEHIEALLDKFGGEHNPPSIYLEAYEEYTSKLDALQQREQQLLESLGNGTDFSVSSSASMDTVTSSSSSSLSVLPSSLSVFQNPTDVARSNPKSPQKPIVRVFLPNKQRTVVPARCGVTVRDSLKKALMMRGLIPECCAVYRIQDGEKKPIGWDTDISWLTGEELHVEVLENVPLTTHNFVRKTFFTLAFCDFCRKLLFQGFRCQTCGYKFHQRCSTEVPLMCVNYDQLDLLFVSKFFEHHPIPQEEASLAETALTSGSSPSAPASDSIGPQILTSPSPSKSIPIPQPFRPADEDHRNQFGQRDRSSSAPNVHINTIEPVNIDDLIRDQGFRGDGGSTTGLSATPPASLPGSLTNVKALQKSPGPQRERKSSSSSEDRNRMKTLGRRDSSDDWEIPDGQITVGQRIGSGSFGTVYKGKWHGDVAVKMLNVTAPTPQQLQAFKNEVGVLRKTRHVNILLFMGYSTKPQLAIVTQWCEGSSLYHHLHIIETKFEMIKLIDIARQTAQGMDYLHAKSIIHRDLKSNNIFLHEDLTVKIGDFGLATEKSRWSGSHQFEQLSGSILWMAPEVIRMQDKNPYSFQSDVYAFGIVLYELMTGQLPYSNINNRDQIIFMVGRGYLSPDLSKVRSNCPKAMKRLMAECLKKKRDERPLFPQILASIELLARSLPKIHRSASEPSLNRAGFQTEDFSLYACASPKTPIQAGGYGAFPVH

## C/C(=N\Nc1ccc(S(N)(=O)=O)cc1)c1cnn(-c2cc(=O)[nH]c3ccc(Cl)cc23)c1C [Compound 4d, (E)-4-(2-(1-(1-(6-chloro-2-oxo-1,2-dihydroquinolin-4-yl)-5-methyl-1H-pyrazol-4-yl)ethylidene)hydrazineyl)benzenesulfonamide]
EGFR; conc 0.01 (log -2)
  %inh: 27.8%
EGFR; conc 0.1 (log -1)
  %inh: 40.6%
EGFR; conc 1 (log 0)
  %inh: 72.7%
EGFR; conc 10 (log 1)
  %inh: 86.9%
EGFR; conc 100 (log 2)
  %inh: 93.7%
EGFR; read-out: EGFR inhibition IC50 ± SEM
  IC50: 0.156 ± 0.006 µM
[1]; Homo sapiens, MOLT-4, MOLT-4, MTT, 0.4uM
  viability at 0.4 µM: 69.9%
[1]; Homo sapiens, MOLT-4, MOLT-4, MTT, 1.6uM
  viability at 1.6 µM: 62.7%
[1]; Homo sapiens, MOLT-4, MOLT-4, MTT, 6.3uM
  viability at 6.3 µM: 51.6%
[1]; Homo sapiens, MOLT-4, MOLT-4, MTT, 25uM
  viability at 25 µM: 40.9%
[1]; Homo sapiens, MOLT-4, MOLT-4, MTT, 100uM
  viability at 100 µM: 30.2%
[1]; Homo sapiens, MOLT-4, MTT, read-out: Antiproliferative activity IC50 ± SEM, MOLT-4
  IC50: 7.24 ± 0.29 µM
[1]; MOLT-4, MTT, 0.4uM, listed as Ws4, 0.4 µM
  % viability: 69.89%
[1]; MOLT-4, MTT, 1.6uM, listed as Ws4, 1.6 µM
  % viability: 62.75%
[1]; MOLT-4, MTT, 25uM, listed as Ws4, 25 µM
  % viability: 40.91%
[1]; MOLT-4, MTT, 100uM, listed as Ws4, 100 µM
  % viability: 30.23%
[2]; Homo sapiens, T47D, T-47D, MTT, 0.4uM
  viability at 0.4 µM: 77.2%
[2]; Homo sapiens, T47D, T-47D, MTT, 1.6uM
  viability at 1.6 µM: 68.1%
[2]; Homo sapiens, T47D, T-47D, MTT, 6.3uM
  viability at 6.3 µM: 56.8%
[2]; Homo sapiens, T47D, T-47D, MTT, 25uM
  viability at 25 µM: 45.8%
[2]; Homo sapiens, T47D, T-47D, MTT, 100uM
  viability at 100 µM: 33.6%
[2]; Homo sapiens, T47D, read-out: Antiproliferative activity IC50 ± SEM, T-47D, MTT
  IC50: 13.8 ± 0.48 µM
[2]; T-47D, MTT, 1.6uM, listed as Ws4, 1.6 µM
  % viability: 68.09%
[2]; T-47D, MTT, 6.3uM, listed as Ws4, 6.3 µM
  % viability: 56.85%
[2]; T-47D, MTT, 25uM, listed as Ws4, 25 µM
  % viability: 45.78%
[2]; T-47D, MTT, 100uM, listed as Ws4, 100 µM
  % viability: 33.56%
BRAF^V600E
  IC50: 0.249 ± 0.01 µM
[3]; WI38, 0.4uM (log conc. -0.41)
  viability at 24 h, 0.4 µM: 80.9%
[3]; WI38, 1.6uM (log conc. 0.19)
  viability at 24 h, 1.6 µM: 73.3%
[3]; WI38, 6.3uM (log conc. 0.8)
  viability at 24 h, 6.3 µM: 63.5%
[3]; WI38, 25uM (log conc. 1.4)
  viability at 24 h, 25 µM: 56.2%
[3]; WI38, 100uM (log conc. 2)
  viability at 24 h, 100 µM: 46.8%
[4]; HOP-92, MTT, 0.4uM, listed as Ws4, 0.4 µM
  % viability: 85.21%
[4]; HOP-92, MTT, 1.6uM, listed as Ws4, 1.6 µM
  % viability: 75.93%
[4]; HOP-92, MTT, 6.3uM, listed as Ws4, 6.3 µM
  % viability: 64.52%
[4]; HOP-92, MTT, 25uM, listed as Ws4, 25 µM
  % viability: 52.12%
[4]; HOP-92, MTT, 100uM, listed as Ws4, 100 µM
  % viability: 42.18%
[4]; Homo sapiens, HOP-92, HOP-92, MTT, 0.4uM, read-out: % viability
  viability at 0.4 µM: 85.2%
[4]; Homo sapiens, HOP-92, HOP-92, MTT, 1.6uM, read-out: % viability
  viability at 1.6 µM: 75.9%
[4]; Homo sapiens, HOP-92, HOP-92, MTT, 6.3uM, read-out: % viability
  viability at 6.3 µM: 64.5%
[4]; Homo sapiens, HOP-92, HOP-92, MTT, 25uM, read-out: % viability
  viability at 25 µM: 52.1%
[4]; Homo sapiens, HOP-92, HOP-92, MTT, 100uM, read-out: % viability
  viability at 100 µM: 42.2%
[4]; Homo sapiens, HOP-92, MTT, read-out: Antiproliferative activity IC50 ± SEM, HOP-92
  IC50: 36.5 ± 1.46 µM
NCI 60 cancer cell lines; 786-0, Renal cancer 786-0, 10 μM
  inhibition at 10 µM: 14.4%
NCI 60 cancer cell lines; A498, Renal cancer A498, 10 μM
  inhibition at 10 µM: < 5%
NCI 60 cancer cell lines; A549, Non-small cell lung cancer A549/ATCC, 10 μM
  inhibition at 10 µM: < 5%
NCI 60 cancer cell lines; ACHN, Renal cancer ACHN, 10 μM
  inhibition at 10 µM: 14.1%
NCI 60 cancer cell lines; BT-549, Breast cancer BT-549, 10 μM
  inhibition at 10 µM: 56.3%
NCI 60 cancer cell lines; CAKI-1, Renal cancer CAKI-1, 10 μM
  inhibition at 10 µM: 21.5%
NCI 60 cancer cell lines; CCRF-CEM, Leukemia CCRF-CEM, 10 μM
  inhibition at 10 µM: 52.2%
NCI 60 cancer cell lines; COLO 205, Colon cancer COLO 205, 10 μM
  inhibition at 10 µM: < 5%
NCI 60 cancer cell lines; DU-145, Prostate cancer DU-145, 10 μM
  inhibition at 10 µM: 10.9%
NCI 60 cancer cell lines; EKVX, Non-small cell lung cancer EKVX, 10 μM
  inhibition at 10 µM: 10.1%
NCI 60 cancer cell lines; HCC 2998, Colon cancer HCC-2998, 10 μM
  inhibition at 10 µM: < 5%
NCI 60 cancer cell lines; HCT-15, Colon cancer HCT-15, 10 μM
  inhibition at 10 µM: < 5%
NCI 60 cancer cell lines; HCT-116, Colon cancer HCT-116, 10 μM
  inhibition at 10 µM: 19.1%
NCI 60 cancer cell lines; HL-60, Leukemia HL-60(TB), 10 μM
  inhibition at 10 µM: < 5%
NCI 60 cancer cell lines; HOP-62, Non-small cell lung cancer HOP-62, 10 μM
  inhibition at 10 µM: 24.6%
NCI 60 cancer cell lines; HOP-92, Non-small cell lung cancer HOP-92, 10 μM
  inhibition at 10 µM: < 5%
NCI 60 cancer cell lines; HT-29, Colon cancer HT29, 10 μM
  inhibition at 10 µM: < 5%
NCI 60 cancer cell lines; Hs-578T, Breast cancer HS 578T, 10 μM
  inhibition at 10 µM: 36.3%
NCI 60 cancer cell lines; IGROV-1, Ovarian cancer IGROV1, 10 μM
  inhibition at 10 µM: 14.6%
NCI 60 cancer cell lines; K562, Leukemia K-562, 10 μM
  inhibition at 10 µM: 29.7%
NCI 60 cancer cell lines; KM12, Colon cancer KM12, 10 μM
  inhibition at 10 µM: 16.7%
NCI 60 cancer cell lines; LOX IMVI, Melanoma LOX IMVI, 10 μM
  inhibition at 10 µM: 29%
NCI 60 cancer cell lines; Leukemia SR, 10 μM
  inhibition at 10 µM: 71.6%
NCI 60 cancer cell lines; MCF7, Breast cancer MCF7, 10 μM
  inhibition at 10 µM: 36.3%
NCI 60 cancer cell lines; MDA-MB-231, Breast cancer MDA-MB-231/ATCC, 10 μM
  inhibition at 10 µM: 51.7%
NCI 60 cancer cell lines; MDA-MB-435, Melanoma MDA-MB-435, 10 μM
  inhibition at 10 µM: 27.3%
NCI 60 cancer cell lines; MDA-MB-468, Breast cancer MDA-MB-468, 10 μM
  inhibition at 10 µM: 47.2%
NCI 60 cancer cell lines; MOLT-4, Leukemia MOLT-4, 10 μM
  inhibition at 10 µM: 34.3%
NCI 60 cancer cell lines; Melanoma M14, 10 μM
  inhibition at 10 µM: 20.7%
NCI 60 cancer cell lines; Melanoma MALM-3M, 10 μM
  inhibition at 10 µM: 44.5%
NCI 60 cancer cell lines; NCI-H23, Non-small cell lung cancer NCI-H23, 10 μM
  inhibition at 10 µM: 16.9%
NCI 60 cancer cell lines; NCI-H226, Non-small cell lung cancer NCI-H226, 10 μM
  inhibition at 10 µM: 17.6%
NCI 60 cancer cell lines; NCI-H322M, Non-small cell lung cancer NCI-H322M, 10 μM
  inhibition at 10 µM: 8.41%
NCI 60 cancer cell lines; NCI-H460, Non-small cell lung cancer NCI-H460, 10 μM
  inhibition at 10 µM: 6.52%
NCI 60 cancer cell lines; NCI-H522, Non-small cell lung cancer NCI-H522, 10 μM
  inhibition at 10 µM: 44.8%
NCI 60 cancer cell lines; NCI/ADR-RES, Ovarian cancer NCI/ADR-RES, 10 μM
  inhibition at 10 µM: 5.85%
NCI 60 cancer cell lines; OVCAR-3, Ovarian cancer OVCAR-3, 10 μM
  inhibition at 10 µM: 23.4%
NCI 60 cancer cell lines; OVCAR-4, Ovarian cancer OVCAR-4, 10 μM
  inhibition at 10 µM: 24.2%
NCI 60 cancer cell lines; OVCAR-5, Ovarian cancer OVCAR-5, 10 μM
  inhibition at 10 µM: 11.5%
NCI 60 cancer cell lines; OVCAR-8, Ovarian cancer OVCAR-8, 10 μM
  inhibition at 10 µM: 6.15%
NCI 60 cancer cell lines; Prostate cancer PC-3, 10 μM
  inhibition at 10 µM: 18.5%
NCI 60 cancer cell lines; RPMI-8226, Leukemia RPMI-8226, 10 μM
  inhibition at 10 µM: 15.7%
NCI 60 cancer cell lines; RXF 393, Renal cancer RXF 393, 10 μM
  inhibition at 10 µM: < 5%
NCI 60 cancer cell lines; SF-268, CNS Cancer SF-268, 10 μM
  inhibition at 10 µM: 28.7%
NCI 60 cancer cell lines; SF-295, CNS Cancer SF-295, 10 μM
  inhibition at 10 µM: 9.48%
NCI 60 cancer cell lines; SF-539, CNS Cancer SF-539, 10 μM
  inhibition at 10 µM: 33%
NCI 60 cancer cell lines; SK-MEL-2, Melanoma SK-MEL-2, 10 μM
  inhibition at 10 µM: 27.2%
NCI 60 cancer cell lines; SK-MEL-5, Melanoma SK-MEL-5, 10 μM
  inhibition at 10 µM: 21.8%
NCI 60 cancer cell lines; SK-MEL-28, Melanoma SK-MEL-28, 10 μM
  inhibition at 10 µM: 24.7%
NCI 60 cancer cell lines; SK-OV-3, Ovarian cancer SK-OV-3, 10 μM
  inhibition at 10 µM: 24.1%
NCI 60 cancer cell lines; SN12C, Renal cancer SN12C, 10 μM
  inhibition at 10 µM: 27%
NCI 60 cancer cell lines; SNB-19, CNS Cancer SNB-19, 10 μM
  inhibition at 10 µM: 24.9%
NCI 60 cancer cell lines; SNB-75, CNS Cancer SNB-75, 10 μM
  inhibition at 10 µM: 35.4%
NCI 60 cancer cell lines; SW-620, Colon cancer SW-620, 10 μM
  inhibition at 10 µM: 7.13%
NCI 60 cancer cell lines; T47D, Breast cancer T-47D, 10 μM
  inhibition at 10 µM: 54%
NCI 60 cancer cell lines; TK-10, Renal cancer TK-10, 10 μM
  inhibition at 10 µM: < 5%
NCI 60 cancer cell lines; U-251, CNS Cancer U251, 10 μM
  inhibition at 10 µM: 26.3%
NCI 60 cancer cell lines; UACC-62, Melanoma UACC-62, 10 μM
  inhibition at 10 µM: 41.8%
NCI 60 cancer cell lines; UACC-257, Melanoma UACC-257, 10 μM
  inhibition at 10 µM: 4.52%
NCI 60 cancer cell lines; UO-31, Renal cancer UO-31, 10 μM
  inhibition at 10 µM: 37.7%
